# pIC50: −log10 of the molar value. Counter-ions that a name gives are not always drawn. Like-named read-outs stand apart in the source and are kept apart here.
# Key:
# [1] = system: rat smooth muscle cells; assay: Antiproliferative activity (growth inhibition of rat smooth muscle cells, relative to heparin); assay type: cell-based; details: 100 μg/ml, 48 hours, relative to heparin 100 μg/ml in same experiment
# Description: The antiproliferative activity of a substance is expressed as the ri value which is a comparative value to the corresponding activity of heparin and which was determined in cell cultures as follows: rat smooth muscle cells were applied to cell culture plates in a density of 8×10^3 cells/well (medium: DMEM with 10% FCS. Cultivation at 37° C. and 5% CO2). After 4 hours the number of adhered cells was determined and the compounds to be tested (100 μg/ml, dissolved in H2 O) were added. The controls were a) cells to which test compound was not added and b) heparin (100 μg/ml). Subsequently, the cells were incubated for 48 hours and thereafter the cell count was determined once more.
# The inhibition i of the cell growth, i.e. the percent reduction in the growth rate of the cells compared to the control, was calculated from these values: [formula] the growth rate μ being calculated as [formula] in which Z is the number of cells.
# Finally, ri --the relative inhibitory activity--which expresses the activity of a substance (at 100 μg/ml) in comparison to the activity of heparin in the same concentration in the same experiment, was calculated: [formula]
# [2] = target: T1, thrombin (Homo sapiens, UniProt P00734); assay: biochemical; assay type: biochemical
# T1 construct: purchased Roche, Basle (Thrombin Reagent)
# Description: (§1) The blood coagulation-inhibiting activity was determined as follows:
# Inhibition of Thrombin or Factor Xa in the Chromogenic Substrate Assay (Teien. et al., Thrombosis Research 10, 399-410 (1977)): The determination was effected in a Cobas-Bio centrifugal automatic spectrophotometer. The buffer solution used consisted of 50 mM Tris buffer, 180 mM NaCl, 7.5 mM EDTA Na2, 1% PEG 6000 and 0.02% Tween 80, pH 8.4. The test solution consisted of 50 μl of buffer, 30 μl of antithrombin III (1 U/ml, Kabi Diagnostica) and 20 μl of plasma which contained various concentrations of test compounds. 30 μl of sample solution and 20 μl of water with 180 μl of thrombin (1 U/ml, Thrombin Reagent Roche Basle) were added to the test cuvette in the automatic analyzer. After incubation at 37° C. for 240 seconds, 60 μl of S-2238 (H-D-Phe-Pip-Arg-NH.pNA, Kabi Diagnostica, Mondal, Sweden, 0.75 mM in water) and 20 μl of water were added. The liberation of pNA (p-nitroaniline) was followed during 60 seconds at 405 nm in 10 second intervals in comparison to water as the blank.
# [3] = target: T2, Factor Xa (Bos taurus, UniProt P00743); assay: Inhibition of Factor Xa in the chromogenic substrate assay (blood coagulation inhibition); assay type: biochemical
# T2 sequence (P00743 41-180 limits assumed): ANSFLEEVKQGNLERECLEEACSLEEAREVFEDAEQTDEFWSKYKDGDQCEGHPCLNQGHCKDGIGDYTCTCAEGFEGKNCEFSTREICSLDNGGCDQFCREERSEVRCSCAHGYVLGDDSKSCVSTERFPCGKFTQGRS
# Description: as §1
# Inhibition of Thrombin or Factor Xa in the Chromogenic Substrate Assay (Teien. et al., Thrombosis Research 10, 399-410 (1977)): The determination was effected in a Cobas-Bio centrifugal automatic spectrophotometer. The buffer solution used consisted of 50 mM Tris buffer, 180 mM NaCl, 7.5 mM EDTA Na2, 1% PEG 6000 and 0.02% Tween 80, pH 8.4. The test solution consisted of 50 μl of buffer, 30 μl of antithrombin III (1 U/ml, Kabi Diagnostica) and 20 μl of plasma which contained various concentrations of test compounds.
# The inhibition of Factor Xa was measured in the same manner using a solution of Factor Xa (2.8 nkat/ml) and 2 mM S-2222 (Bz-CO-Ile-Glu-Arg-NH.pNA, Kabi Diagnostica) in water in place of thrombin or S-2238.
# [4] = chromogenic substrate S-2238, antithrombin III, plasma, pH 8.4, 37° C.; read-out: Anticoagulative Activity IC50 Thrombin
# [5] = chromogenic substrate S-2222, antithrombin III, plasma; read-out: Anticoagulative Activity IC50 Factor Xa
# [6] = read-out: Anticoagulative Activity IC50 Thrombin; chromogenic substrate S-2238, antithrombin III, plasma, pH 8.4, 37° C.
# [7] = read-out: Anticoagulative Activity IC50 Factor Xa; chromogenic substrate S-2222, antithrombin III, plasma
Compound,Antiproliferative Activity ri (relative inhibitory activity compared with heparin) [1],"pIC50 [2, 4]","pIC50 [3, 5]","pIC50 [2, 6]","pIC50 [3, 7]","Anticoagulative Activity IC50 Thrombin ([2]; chromogenic substrate S-2238, antithrombin III, plasma, pH 8.4, 37° C.) [µg/mL]","Anticoagulative Activity IC50 Factor Xa ([3]; chromogenic substrate S-2222, antithrombin III, plasma) [µg/mL]"
"CN(C[C@H](OS(=O)(=O)O)[C@@H](OS(=O)(=O)O)[C@H](OS(=O)(=O)O)[C@@H](COS(=O)(=O)O)OS(=O)(=O)O)C(=O)c1ccc2c(c1)C(=O)c1cc(C(=O)N(C)C[C@H](OS(=O)(=O)O)[C@@H](OS(=O)(=O)O)[C@H](OS(=O)(=O)O)[C@@H](COS(=O)(=O)O)OS(=O)(=O)O)ccc1-2 [Example 37, 9-oxo-9H-fluorene-2,7-dicarboxylic acid bis-[methyl-(2,3,4,5,6-penta-O-sulfo-D-glucit-1yl)-amide] decasodium salt]",0.7,< 3.15,< 3.15,,,,
"O=C(/C=C\C(=O)Nc1cc(COc2ccc(-c3ccccc3)cc2)cc(NC(=O)/C=C\C(=O)NC[C@H](OS(=O)(=O)O)[C@@H](OS(=O)(=O)O)[C@H](OS(=O)(=O)O)[C@@H](COS(=O)(=O)O)OS(=O)(=O)O)c1)NC[C@H](OS(=O)(=O)O)[C@@H](OS(=O)(=O)O)[C@H](OS(=O)(=O)O)[C@@H](COS(=O)(=O)O)OS(=O)(=O)O [Example 58, (Z)-butenedioic acid (Z)-[3-biphenyl-4-yloxymethyl-5-[3-(2,3,4,5,6-penta-O-sulfo-D-glucit-1-ylcarbamoyl)-acryloylamino]-phenylamide]-(2,3,4,5,6-penta-O-sulfo-D-glucit-1-yl)-amide decasodium salt]",2.2,< 3.21,< 3.21,,,,
"O=C(Nc1ccc(OC[C@@H](OS(=O)(=O)O)[C@H](OS(=O)(=O)O)[C@H](OS(=O)(=O)O)[C@H](COS(=O)(=O)O)OS(=O)(=O)O)cc1)Nc1ccc(OC[C@@H](OS(=O)(=O)O)[C@H](OS(=O)(=O)O)[C@H](OS(=O)(=O)O)[C@H](COS(=O)(=O)O)OS(=O)(=O)O)cc1 [Example 65, 1,3-bis-[4-(2,3,4,5,6-penta-O-sulfo-D-galactit-6-yloxy)-phenyl]-urea decasodium salt]",0.8,< 3.14,< 3.14,,,,
"O=[N+]([O-])c1cc(S(=O)(=O)c2ccc(NC[C@H](OS(=O)(=O)O)[C@@H](OS(=O)(=O)O)[C@H](OS(=O)(=O)O)[C@@H](COS(=O)(=O)O)OS(=O)(=O)O)c([N+](=O)[O-])c2)ccc1NC[C@H](OS(=O)(=O)O)[C@@H](OS(=O)(=O)O)[C@H](OS(=O)(=O)O)[C@@H](COS(=O)(=O)O)OS(=O)(=O)O [Example 67, N,N'-bis-(2,3,4,5,6-penta-O-sulfo-D-glucit-1-yl)-2,2'-dinitro-4,4'-sulfonyldianiline decasodium salt]",1.0,,,< 3.17,< 3.17,,
"O=C(Nc1ccc(Cc2ccc(NC(=O)c3ccc(NC[C@H](OS(=O)(=O)O)[C@@H](OS(=O)(=O)O)[C@H](OS(=O)(=O)O)[C@@H](COS(=O)(=O)O)OS(=O)(=O)O)c([N+](=O)[O-])c3)cc2)cc1)c1ccc(NC[C@H](OS(=O)(=O)O)[C@@H](OS(=O)(=O)O)[C@H](OS(=O)(=O)O)[C@@H](COS(=O)(=O)O)OS(=O)(=O)O)c([N+](=O)[O-])c1 [Example 68, 4,4'-bis-(2,3,4,5,6-penta-O-sulfo-D-glucit-1-ylamino)-3,3'-dinitro-N,N'-(4,4'-methylene-diphenyl)-dibenzamide decasodium salt]",1.1,,,< 3.22,< 3.22,,
"O=C(NC[C@H](OS(=O)(=O)O)[C@@H](OS(=O)(=O)O)[C@H](OS(=O)(=O)O)[C@@H](COS(=O)(=O)O)OS(=O)(=O)O)c1ccc(/C=C/c2ccc(C(=O)NC[C@H](OS(=O)(=O)O)[C@@H](OS(=O)(=O)O)[C@H](OS(=O)(=O)O)[C@@H](COS(=O)(=O)O)OS(=O)(=O)O)cc2Cl)cc1 [Example 85, (E)-2-chlorostilbene-4,4'-dicarboxylic acid bis-(2,3,4,5,6-penta-O-sulfo-D-glucit-1-ylamide) decasodium salt]",2.1,< 3.16,< 3.16,,,,
"C[C@H](OS(=O)(=O)O)[C@H](OS(=O)(=O)O)[C@@H](OS(=O)(=O)O)[C@H](CNC(=O)c1ccc(/C=C\c2ccc(C(=O)NC[C@H](OS(=O)(=O)O)[C@H](OS(=O)(=O)O)[C@@H](OS(=O)(=O)O)[C@H](C)OS(=O)(=O)O)cc2)cc1)OS(=O)(=O)O [Example 93, (Z)-stilbene-4,4'-dicarboxylic acid bis-(2,3,4,5,6-penta-O-sulfo-L-rhamnit-1-ylamide) octasodium salt]",1.0,< 3.08,< 3.08,,,,
heparin [reference compound],1.0,,,,,1.9,2.7

# — patent publication US5521160A, “Sulfuric acid esters of sugar alcohols” (Hoffmann-La Roche Inc., priority 1994, dated 1996)
